How the values were obtained:
[1] = test system: DENV-2 16681 strain labeled with enhanced green fluorescent protein; test: DENV-2 antiviral assay (eGFP fluorescence read-out in Vero cells); assay type: cell-based, Dengue virus; settings: DENV-2 16681 eGFP, MOI 0.5, 3 days
Protocol: The antiviral activity of all the compounds of the invention was tested against the DENV-2 16681 strain which was labeled with enhanced green fluorescent protein (eGPF). The culture medium consists of minimal essential medium supplemented with 2% of heat-inactivated fetal calf serum, 0.04% gentamycin (50 mg/mL) and 2 mM of L-glutamine. Vero cells, obtained from ECACC, were suspended in culture medium and 25 μL was added to 384-well plates (2500 cells/well), which already contain the antiviral compounds. Typically, these plates contain a 5-fold serial dilution of 9 dilution steps of the test compound at 200 times the final concentration in 100% DMSO (200 nL). […] Finally, each plate contains wells which are assigned as virus controls (containing cells and virus in the absence of compound), cell controls (containing cells in the absence of virus and compound) and medium controls (containing medium in the absence of cells, virus and compounds). To the wells assigned as medium control, 25 μL of culture medium was added instead of Vero cells. Once the cells were added to the plates, the plates were incubated for 30 minutes at room temperature to allow the cells to distribute evenly within the wells. Next, the plates were incubated in a fully humidified incubator (37° C., 5% CO2) until the next day. Then, DENV-2 strain 16681, labeled with eGFP, was added at a multiplicity of infection (MOI) of 0.5. Therefore, 15 μL of virus suspension was added to all the wells containing test compound and to the wells assigned as virus control. In parallel, 15 μL of culture medium was added to the medium and cell controls. Next, the plates were incubated for 3 days in a fully humidified incubator (37° C., 5% CO2). At the day of the read out, the eGFP fluorescence was measured using an automated fluorescence microscope at 488 nm (blue laser). Using an in-house LIMS system, inhibition dose response curves for each compound were calculated and the half maximal effective concentration (EC50) was determined. Therefore, the percent inhibition (I) for every test concentration is calculated using the following formula: I=100*([…])/(SVC−SCC); ST, SCC and SVC are the amount of eGFP signal in the test compound, cell control and virus control wells, respectively. The EC50 represents the concentration of a compound at which the virus replication is inhibited with 50%, as measured by a 50% reduction of the eGFP fluorescent intensity compared to the virus control. The EC50 is calculated using linear interpolation (Table 1).

in vitro = assay type: cell-based; settings: African green monkey, CC50
Protocol: (§1) In parallel, the toxicity of the compounds was assessed on the same plates. Once the read-out for the eGFP signal was done, 40 μL of ATPlite, a cell viability stain, was added to all wells of the 384-well plates. ATP is present in all metabolically active cells and the concentration declines very rapidly when the cells undergo necrosis or apoptosis. The ATPLite assay system is based on the production of light caused by the reaction of ATP with added luciferase and D-luciferin. The plates were incubated for 10 minutes at room temperature. Next, the plates were measured on a ViewLux. The half maximal cytotoxic concentration (CC50) was also determined, defined as the concentration required to reduce the luminescent signal by 50% compared to that of the cell control wells. Finally, the selectivity index (SI) was determined for the compounds, which was calculated as followed: SI=CC50/EC50.

Vero cells = test: in vitro; assay type: cell-based; settings: African green monkey
Protocol: as §1

[2] = Dengue virus, DENV2, Vero, 72 h

## COc1cc(NC(C(=O)c2c[nH]c3cc(F)ccc23)c2ccc(Cl)cc2OCCO)cc(S(C)(=O)=O)c1 (racemic) [Compound 1, 2-(4-chloro-2-(2-hydroxyethoxy)phenyl)-1-(6-fluoro-1H-indol-3-yl)-2-((3-methoxy-5-(methylsulfonyl)phenyl)amino)ethanone]
[1]; [2]
  EC50: 0.43 nM
In vitro
  CC50: 5100 nM

## COc1cc(NC(C(=O)c2c[nH]c3cc(OC)c(C)cc23)c2ccc(Cl)cc2OCCO)cc(S(C)(=O)=O)c1 (racemic) [Compound 6, 2-(4-chloro-2-(2-hydroxyethoxy)phenyl)-2-((3-methoxy-5-(methylsulfonyl)phenyl)amino)-1-(6-methoxy-5-methyl-1H-indol-3-yl)ethanone]
[1]; [2]
  EC50: 0.37 nM
In vitro
  CC50: 4700 nM

## COc1cc(NC(C(=O)c2c[nH]c3cc(F)c(F)cc23)c2ccc(Cl)cc2OCCO)cc(S(C)(=O)=O)c1 (racemic) [Compound 7, 2-(4-chloro-2-(2-hydroxyethoxy)phenyl)-1-(5,6-difluoro-1H-indol-3-yl)-2-((3-methoxy-5-(methylsulfonyl)phenyl)amino)ethanone]
[1]; [2]
  EC50: 0.26 nM
In vitro
  CC50: 2800 nM

## COc1cc(NC(C(=O)c2c[nH]c3cc(F)c(C)cc23)c2ccc(Cl)cc2OCCO)cc(S(C)(=O)=O)c1 (racemic) [Compound 8, 2-(4-chloro-2-(2-hydroxyethoxy)phenyl)-1-(6-fluoro-5-methyl-1H-indol-3-yl)-2-((3-methoxy-5-(methylsulfonyl)phenyl)amino)ethanone]
[1]; [2]
  EC50: 0.27 nM
In vitro
  CC50: 2800 nM

## COc1cc(NC(C(=O)c2c[nH]c3ccc(OC(F)(F)F)cc23)c2ccc(Cl)cc2OCCO)cc(S(C)(=O)=O)c1 (racemic) [Compound 10, 2-(4-chloro-2-(2-hydroxyethoxy)phenyl)-2-((3-methoxy-5-(methylsulfonyl)phenyl)amino)-1-(5-(trifluoromethoxy)-1H-indol-3-yl)ethanone]
[1]; [2]
  EC50: 0.1 nM
In vitro
  CC50: > 2400 nM

## COc1cc(NC(C(=O)c2c[nH]c3c(C)cc(OC(F)(F)F)cc23)c2ccc(Cl)cc2OCCO)cc(S(C)(=O)=O)c1 (racemic) [Compound 12, 2-(4-chloro-2-(2-hydroxyethoxy)phenyl)-2-((3-methoxy-5-(methylsulfonyl)phenyl)amino)-1-(7-methyl-5-(trifluoromethoxy)-1H-indol-3-yl)ethanone]
[1]; [2]
  EC50: 0.1 nM
In vitro
  CC50: 2500 nM

## COc1cc(NC(C(=O)c2c[nH]c3cc(F)ccc23)c2ccc(Cl)cc2OCCO)cc(S(C)(=O)=O)c1 (single isomer, unassigned) [Compound 1B, 2-(4-chloro-2-(2-hydroxyethoxy)phenyl)-1-(6-fluoro-1H-indol-3-yl)-2-((3-methoxy-5-(methylsulfonyl)phenyl)amino)ethanone]
[1]
  EC50: 3.5 nM
Vero cells
  CC50: 8400 nM

## COc1cc(NC(C(=O)c2c[nH]c3cc(Cl)ccc23)c2ccc(Cl)cc2OCCO)cc(S(C)(=O)=O)c1 (single isomer, unassigned) [Compound 2B, 1-(6-chloro-1H-indol-3-yl)-2-(4-chloro-2-(2-hydroxyethoxy)phenyl)-2-((3-methoxy-5-(methylsulfonyl)phenyl)amino)ethanone]
[1]
  EC50: 4.9 nM
Vero cells
  CC50: 11000 nM

## COc1cc(NC(C(=O)c2c[nH]c3cc(OC)ccc23)c2ccc(Cl)cc2OCCO)cc(S(C)(=O)=O)c1 (single isomer, unassigned) [Compound 3B, 2-(4-chloro-2-(2-hydroxyethoxy)phenyl)-1-(6-methoxy-1H-indol-3-yl)-2-((3-methoxy-5-(methylsulfonyl)phenyl)amino)ethanone]
[1]
  EC50: 56 nM
Vero cells
  CC50: 13000 nM

## COc1cc(NC(C(=O)c2c[nH]c3c(C)c(F)ccc23)c2ccc(Cl)cc2OCCO)cc(S(C)(=O)=O)c1 (single isomer, unassigned) [Compound 4B, 2-(4-chloro-2-(2-hydroxyethoxy)phenyl)-1-(6-fluoro-7-methyl-1H-indol-3-yl)-2-((3-methoxy-5-(methylsulfonyl)phenyl)amino)ethanone]
[1]
  EC50: 11 nM
Vero cells
  CC50: 5700 nM

## COc1cc(NC(C(=O)c2c[nH]c3c(C)c(Cl)ccc23)c2ccc(Cl)cc2OCCO)cc(S(C)(=O)=O)c1 (single isomer, unassigned) [Compound 5A, 2-(4-chloro-2-(2-hydroxyethoxy)phenyl)-1-(6-chloro-7-methyl-1H-indol-3-yl)-2-((3-methoxy-5-(methylsulfonyl)phenyl)amino)ethanone]
[1]
  EC50: 8.4 nM
In vitro
  CC50: 5000 nM

## COc1cc(NC(C(=O)c2c[nH]c3cc(OC)c(C)cc23)c2ccc(Cl)cc2OCCO)cc(S(C)(=O)=O)c1 (single isomer, unassigned) [Compound 6B, 2-(4-chloro-2-(2-hydroxyethoxy)phenyl)-2-((3-methoxy-5-(methylsulfonyl)phenyl)amino)-1-(6-methoxy-5-methyl-1H-indol-3-yl)ethanone]
[1]
  EC50: 36 nM
Vero cells
  CC50: 5900 nM

## COc1cc(NC(C(=O)c2c[nH]c3cc(F)c(F)cc23)c2ccc(Cl)cc2OCCO)cc(S(C)(=O)=O)c1 (single isomer, unassigned) [Compound 7B, 2-(4-chloro-2-(2-hydroxyethoxy)phenyl)-1-(5,6-difluoro-1H-indol-3-yl)-2-((3-methoxy-5-(methylsulfonyl)phenyl)amino)ethanone]
[1]
  EC50: 5 nM
Vero cells
  CC50: 9200 nM

## COc1cc(NC(C(=O)c2c[nH]c3cc(F)c(C)cc23)c2ccc(Cl)cc2OCCO)cc(S(C)(=O)=O)c1 (single isomer, unassigned) [Compound 8B, 2-(4-chloro-2-(2-hydroxyethoxy)phenyl)-1-(6-fluoro-5-methyl-1H-indol-3-yl)-2-((3-methoxy-5-(methylsulfonyl)phenyl)amino)ethanone]
[1]
  EC50: 1.7 nM
Vero cells
  CC50: > 2400 nM

## COc1cc(NC(C(=O)c2c[nH]c3ccc(C(F)(F)F)cc23)c2ccc(Cl)cc2OCCO)cc(S(C)(=O)=O)c1 (single isomer, unassigned) [Compound 9A, 2-(4-chloro-2-(2-hydroxyethoxy)phenyl)-2-((3-methoxy-5-(methylsulfonyl)phenyl)amino)-1-(5-(trifluoromethyl)-1H-indol-3-yl)ethanone]
[1]
  EC50: 1.9 nM
Vero cells
  CC50: 11000 nM

## COc1cc(NC(C(=O)c2c[nH]c3ccc(OC(F)(F)F)cc23)c2ccc(Cl)cc2OCCO)cc(S(C)(=O)=O)c1 (single isomer, unassigned) [Compound 10A, 2-(4-chloro-2-(2-hydroxyethoxy)phenyl)-2-((3-methoxy-5-(methylsulfonyl)phenyl)amino)-1-(5-(trifluoromethoxy)-1H-indol-3-yl)ethanone]
[1]
  EC50: 2.9 nM
In vitro
  CC50: 2300 nM

## COc1cc(NC(C(=O)c2c[nH]c3cc(OC)c(OC(F)(F)F)cc23)c2ccc(Cl)cc2OCCO)cc(S(C)(=O)=O)c1 (single isomer, unassigned) [Compound 11A, 2-(4-chloro-2-(2-hydroxyethoxy)phenyl)-2-((3-methoxy-5-(methylsulfonyl)phenyl)amino)-1-(6-methoxy-5-(trifluoromethoxy)-1H-indol-3-yl)ethanone]
[1]
  EC50: 1.5 nM
In vitro
  CC50: > 2300 nM

## COc1cc(NC(C(=O)c2c[nH]c3c(C)cc(OC(F)(F)F)cc23)c2ccc(Cl)cc2OCCO)cc(S(C)(=O)=O)c1 (single isomer, unassigned) [Compound 12A, 2-(4-chloro-2-(2-hydroxyethoxy)phenyl)-2-((3-methoxy-5-(methylsulfonyl)phenyl)amino)-1-(7-methyl-5-(trifluoromethoxy)-1H-indol-3-yl)ethanone]
[1]
  EC50: 5 nM
In vitro
  CC50: 2500 nM
